Assay results reported in patent publication US20140187548A1, “6 SUBSTITUTED IMIDAZOPYRAZINES FOR USE AS MPS-1 AND TKK INHIBITORS IN THE TREATMENT OF HYPERPROLIFERATIVE DISORDERS” (BAYER INTELLECTUAL PROPERTY GMBH, priority 2010, published 2014).

biological target: T1, human kinase Mps-1 (Homo sapiens, UniProt P33981); assay: Mps-1 kinase assay (TR-FRET); format: biochemical; conditions: N-terminally GST-tagged human full length recombinant Mps-1; 10 μM ATP; 1 μM peptide substrate; 15 min pre-incubation; 60 min at 22° C.
T1 construct: N-terminally GST-tagged human full length recombinant Mps-1 kinase; GST (N); purchased Invitrogen, Karslruhe, Germany PV4071
T1 sequence (P33981 1-857): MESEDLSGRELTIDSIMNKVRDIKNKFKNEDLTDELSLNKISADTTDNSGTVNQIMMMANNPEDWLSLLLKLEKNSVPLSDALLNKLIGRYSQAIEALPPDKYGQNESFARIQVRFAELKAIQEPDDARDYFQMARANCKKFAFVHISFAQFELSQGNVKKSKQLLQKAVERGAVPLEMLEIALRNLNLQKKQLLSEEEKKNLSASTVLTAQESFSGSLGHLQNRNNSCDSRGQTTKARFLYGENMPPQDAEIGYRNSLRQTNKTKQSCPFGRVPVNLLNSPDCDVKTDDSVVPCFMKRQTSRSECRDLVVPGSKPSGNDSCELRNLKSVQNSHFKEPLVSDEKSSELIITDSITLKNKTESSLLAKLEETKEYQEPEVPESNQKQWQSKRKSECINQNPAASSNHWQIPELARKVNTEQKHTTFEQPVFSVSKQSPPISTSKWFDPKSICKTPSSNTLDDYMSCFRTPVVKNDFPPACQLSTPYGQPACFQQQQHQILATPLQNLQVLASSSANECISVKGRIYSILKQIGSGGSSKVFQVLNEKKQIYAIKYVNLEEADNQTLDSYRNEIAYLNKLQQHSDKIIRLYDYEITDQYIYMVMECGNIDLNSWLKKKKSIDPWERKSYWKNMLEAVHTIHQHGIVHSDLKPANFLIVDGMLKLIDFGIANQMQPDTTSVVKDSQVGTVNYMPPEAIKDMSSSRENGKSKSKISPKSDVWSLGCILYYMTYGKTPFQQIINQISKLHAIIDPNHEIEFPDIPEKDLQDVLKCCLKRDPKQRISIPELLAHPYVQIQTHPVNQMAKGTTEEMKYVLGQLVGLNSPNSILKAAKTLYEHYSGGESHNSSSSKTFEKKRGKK
How it was run: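 N-terminally GST-tagged full-length recombinant human Mps-1, about 1 nM final, phosphorylates a biotinylated peptide. Product detected by TR-FRET from Eu-anti-phospho-Ser/Thr antibody to streptavidin-XLent after 1 h at 22° C.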

Row | IC50 | SMILES
1 | 3.3 nM | Cc1cc(-c2cnc3c(NCC4CCOC4)nc(-c4ccc(F)cc4)cn23)ccc1C(=O)NC1CC1 (stereo not shown) [Example 10-11, N-cyclopropyl-4-{6-(4-fluorophenyl)-8-[(tetrahydrofuran-3-yl-methyl)amino]imidazo [1,2-a]pyrazin-3-yl}-2-methylbenzamide]
2 | 2.3 nM | CC(C)CNc1nc(-c2ccc(F)cc2)cn2c(-c3ccc(C(=O)NC4CC4)cc3)cnc12 [Example 1-6, N-cyclopropyl-4-{6-(4-fluorophenyl)-8-[(2-methylpropyl)amino]imidazo[1,2-a]pyrazin-3-yl}benzamide]
3 | 3.3 nM | CCNc1nc(-c2ccccc2)cn2c(-c3ccc(C(=O)NC4CC4)cc3)cnc12 [Example 2-16, N-cyclopropyl-4-[8-(ethylamino)-6-phenylimidazo [1,2-a]pyrazin-3-yl]benzamide]
4 | 2.9 nM | CCC(CNc1nc(-c2ccccc2)cn2c(-c3ccc(C(=O)NC4CC4)cc3)cnc12)OC (stereo not shown) [Example 2-58, N-cyclopropyl-4-{8-[(2-methoxybutyl)amino]-6-phenylimidazo[1,2-a]pyrazin-3-yl}benzamide]
5 | 2.5 nM | CC(C)CNc1nc(-c2ccc(S(C)(=O)=O)cc2)cn2c(-c3ccc(C(=O)NC4CC4)cc3)cnc12 [Example 1-75, N-cyclopropyl-4-{8-[(2-methylpropyl)amino]-6-[4-(methylsulfonyl)phenyl]imidazo[1,2-a]pyrazin-3-yl}benzamide]
6 | 12.6 nM | CC(C)CNc1nc(-c2ccc(N(C)C)cc2)cn2c(-c3ccc(C(=O)NC4CC4)c(F)c3)cnc12 [Example 1-110, N-cyclopropyl-4-{6-[4-(dimethylamino)phenyl]-8-[(2-methylpropyl)amino]imidazo[1,2-a]pyrazin-3-yl}-2-fluoro-benzamide]
7 | 12.4 nM | O=C(NC1CC1)c1ccc(-c2cnc3c(NCC4CCC(C(F)(F)F)CC4)nc(-c4ccccc4)cn23)cc1 (mixture of isomers) [Example 2-86, N-cyclopropyl-4-[6-phenyl-8-([[4-(trifluoromethyl)cyclohexyl]methyl]amino)imidazo[1,2-a]pyrazin-3-yl]benzamide]
8 | 8.1 nM | CC(C)CNc1nc(-c2cccc(C(=O)N(C)C)c2)cn2c(-c3ccc(C(=O)NC4CC4)cc3)cnc12 [Example 1-27, 3-{3-[4-(cyclopropyl-carbamoyl)phenyl]-8-[(2-methylpropyl)amino]imidazo[1,2-a]pyrazin-6-yl}-N,N-dimethyl-benzamide]
9 | 1.1 nM | O=C(NC1CC1)c1ccc(-c2cnc3c(NCCC(F)(F)F)nc(-c4ccccc4)cn23)cc1 [Example 2-43, N-cyclopropyl-4-{6-phenyl-8-[(3,3,3-trifluoropropyl)amino]imidazo[1,2-a]pyrazin-3-yl} benzamide]
10 | 49 nM | CC(C)CNc1nc(-c2ccc3ccccc3c2)cn2c(-c3ccc(C(=O)NC4CC4)cc3)cnc12 [Example 1-42, N-cyclopropyl-4-{8-[(2-methylpropyl)amino]-6-(naphthalen-2-yl)imidazo[1,2-a]pyrazin-3-yl}benzamide]
11 | 14.8 nM | CCN(CC)CCCNc1nc(-c2ccccc2)cn2c(-c3ccc(C(=O)NC4CC4)cc3)cnc12 [Example 2-29, N-cyclopropyl-4-(8-{[3-(diethylamino)propyl]amino}-6-phenylimidazo[1,2-a]pyrazin-3-yl)benzamide]
12 | 1.7 nM | COCCNc1nc(-c2ccccc2)cn2c(-c3ccc(C(=O)NC4CC4)cc3)cnc12 [Example 2-12, N-cyclopropyl-4-{8-[(2-methoxyethyl)amino]-6-phenylimidazo[1,2-a]pyrazin-3-yl}benzamide]
13 | 7.7 nM | CC(C)CNc1nc(-c2ccc(F)c(F)c2)cn2c(-c3ccc(C(=O)NC4CC4)cc3)cnc12 [Example 1-63, N-cyclopropyl-4-{6-(3,4-difluorophenyl)-8-[(2-methylpropyl)amino]imidazo[1,2-a]pyrazin-3-yl}benzamide]
14 | 2.3 nM | COC(=O)c1cccc(-c2cn3c(-c4ccc(C(=O)NC5CC5)cc4)cnc3c(NCC(C)C)n2)c1 [Example 1-11, methyl 3-{3-[4-(cyclopropyl-carbamoyl)phenyl]-8-[(2-methylpropyl)amino]imidazo[1,2-a]pyrazin-6-yl}benzoate]
15 | 3.6 nM | Cc1cc(-c2cnc3c(NCCC(F)(F)F)nc(-c4ccc(F)cc4)cn23)ccc1C(=O)NC1CC1 [Example 10-1, N-cyclopropyl-4-{6-(4-fluorophenyl)-8-[(3,3,3-trifluoropropyl)amino]imidazo[1,2-a]pyrazin-3-yl}-2-methylbenzamide]
16 | 5.8 nM | CCOc1cccc(-c2cn3c(-c4ccc(C(=O)NC5CC5)cc4)cnc3c(NCC(C)C)n2)c1 [Example 1-44, N-cyclopropyl-4-{6-(3-ethoxyphenyl)-8-[(2-methylpropyl)amino]imidazo[1,2-a]pyrazin-3-yl}benzamide]
17 | 5.4 nM | O=C(NC1CC1)c1ccc(-c2cnc3c(NCCSC(F)(F)F)nc(-c4ccccc4)cn23)cc1 [Example 2-83, N-cyclopropyl-4-[6-phenyl-8-({2-[(trifluoromethyl)sulfanyl]ethyl}amino)imidazo[1,2-a]pyrazin-3-yl]benzamide]
18 | 3.9 nM | CC(C)CNc1nc(-c2ccc(C(=O)N3CCCC3)cc2)cn2c(-c3ccc(C(=O)NC4CC4)cc3)cnc12 [Example 1-26, N-cyclopropyl-4-{8-[(2-methylpropyl)amino]-6-[4-(pyrrolidin-1-yl-carbonyl)phenyl]imidazo [1,2-a]pyrazin-3-yl} benzamide]
19 | 5.1 nM | Cc1cc(-c2cnc3c(NCC(C)C)nc(-c4ccc(F)cc4)cn23)ccc1C(=O)NC1CC1 [Example 10-3, N-cyclopropyl-4-{6-(4-fluorophenyl)-8-[(2-methylpropyl)amino]imidazo[1,2-a]pyrazin-3-yl}-2-methylbenzamide]
20 | 2.7 nM | O=C(NC1CC1)c1ccc(-c2cnc3c(NCC4CC4)nc(-c4ccccc4)cn23)cc1 [Example 2-23, N-cyclopropyl-4-{8-[(cyclo-propylmethyl)amino]-6-phenylimidazo[1,2-a]pyrazin-3-yl}benzamide]
21 | 12.1 nM | N#Cc1cccc(CNc2nc(-c3ccccc3)cn3c(-c4ccc(C(=O)NC5CC5)cc4)cnc23)c1 [Example 2-61, 4-{8-[(3-cyanobenzyl)amino]-6-phenylimidazo[1,2-a]pyrazin-3-yl}-N-cyclopropylbenzamide]
22 | 6.2 nM | CC(C)CNc1nc(-c2ccc(C(=O)NC(C)C)c(F)c2)cn2c(-c3ccc(C(=O)NC4CC4)cc3)cnc12 [Example 1-86, 4-{3-[4-(cyclopropyl-carbamoyl)phenyl]-8-[(2-methylpropyl)amino]imidazo[1,2-a]pyrazin-6-yl}-2-fluoro-N-(propan-2-yl)benzamide]
23 | 5.4 nM | CCC(C)c1cn2c(-c3ccc(C(=O)NC4CC4)cc3)cnc2c(NCC(C)C)n1 (stereo not shown) [Example 11-1, 4-{6-(butan-2-yl)-8-[(2-methylpropyl)amino]imidazo[1,2-a]pyrazin-3-yl}-N-cyclopropylbenzamide]
24 | 1.2 nM | CC(C)CNc1nc(-c2ccccc2CO)cn2c(-c3ccc(C(=O)NC4CC4)cc3)cnc12 [Example 1-77, N-cyclopropyl-4-{6-[2-(hydroxymethyl)phenyl]-8-[(2-methylpropyl)amino]imidazo[1,2-a]pyrazin-3-yl}benzamide]
25 | 7.2 nM | Cc1cc(-c2cnc3c(NCC4CC(=O)N(C)C4)nc(-c4ccc(F)cc4)cn23)ccc1C(=O)NC1CC1 (stereo not shown) [Example 10-13, N-cyclopropyl-4-[6-(4-fluorophenyl)-8-{[(1-methyl-5-oxopyrrolidin-3-yl)methyl]amino}imidazo[1,2-a]pyrazin-3-yl]-2-methylbenzamide]
26 | 9.1 nM | Cc1cc(-c2cnc3c(NCC4CCCO4)nc(-c4ccc(F)cc4)cn23)ccc1C(=O)NC1CC1 (stereo not shown) [Example 10-2, N-cyclopropyl-4-{6-(4-fluorophenyl)-8-[(tetrahydrofuran-2-ylmethyl)amino]imidazo [1,2-a]pyrazin-3-yl}-2-methylbenzamide]
27 | 20.1 nM | O=C(NC1CC1)c1ccc(-c2cnc3c(NCC4CCCO4)nc(-c4ccccc4CO)cn23)cc1F (stereo not shown) [Example 1-118, N-cyclopropyl-2-fluoro-4-{6-[2-(hydroxymethyl)phenyl]-8-[(tetrahydro-furan-2-ylmethyl)amino]imidazo[1,2-a]pyrazin-3-yl}benzamide]
28 | 1.5 nM | Cn1nccc1CNc1nc(-c2ccccc2)cn2c(-c3ccc(C(=O)NC4CC4)cc3)cnc12 [Example 2-54, N-cyclopropyl-4-(8-{[(1-methyl-1H-pyrazol-5-yl)methyl]amino}-6-phenylimidazo[1,2-a]pyrazin-3-yl)benzamide]
